Results as given in patent publication EP0751957B1, “PEPTIDE FRAGMENTS OF MICROBIAL STRESS PROTEINS AND PHARMACEUTICAL COMPOSITION MADE THEREOF FOR THE TREATMENT AND PREVENTION OF INFLAMMATORY DISEASES” (priority 1994, dated 2004).
“Also recorded” adds a separate entry of the source.

Legend:
[1] = system: primed lymph node cells (PLNC); test: T cell proliferation assay, PLNC from peptide-immunised rats; format: cell-based, Lewis rats; conditions: in vitro peptide 20 µg/ml
Experimental: (§1) Immunisations with synthetic peptides and primed lymph node populations: Rats were immunised with 50 µg of synthetic peptide in PBS/DDA in each hind footpad (i.e. 50 µg/footpad, 100 µg/rat). Ten days later, draining popliteal lymph nodes were removed, disaggregated, washed three times and used as a source of primed lymph node cells (PLNC). In some experiments, PLNC were derived as pooled inguinal and popliteal lymph nodes from AA rats 35-42 days post Mt immunisation.
(§2) T cell proliferation assays: PLNC were cultured in triplicate in 200 µl flat bottom microtitre wells (Costar) at 2 x 10^5 cells per well with or without antigen. In initial experiments PLNC were tested for responsiveness to individual peptides at concentrations of 5 and 20 µg/ml, and Mt, hsp65 and PPD over a range of concentrations. Concanavalin A (2 µg/ml) was used as a positive control for T cell proliferation. Cultures were incubated for 96 h at 37°C in a humidified atmosphere of 5% CO2. Cultures were pulsed for the final 16 h with [^3H] TdR (Amersham, U.K., 1 uCi/well) and TdR uptake measured using a liquid scintillation β counter. Assays using T cell lines were performed as above using 2 x 10^4 line cells per well with irradiated (30 Gy) syngeneic accessory cells (either 3 x 10^5 splenocytes/well or 10^6 thymocytes/well). Results are expressed as mean counts per minute (cpm) of triplicate cultures. In experiments where responses to Ag were low, responses were considered significant if the stimulation index (S.I. = mean cpm with Ag - mean cpm without Ag) was greater than two and Student's t tests gave p < 0.01.
To determine whether immunisation of rats with synthetic peptides was effective at priming for T cell reactivity to hsp65 epitopes, in vitro proliferative responses following immunisation with 100 µg of peptide each containing individual T cell epitopes were examined. PLNC isolated ten days after immunisation were tested for response to the immunising peptide, overlapping peptides and to hsp65 (Table II). PLNC responses were observed after immunisation with seven of the nine peptides. Responses were not seen after immunisation with peptides 386-400 and 511-525.
(§3) T cell responses by immunisation with hsp65 peptides. Rats were immunised with synthetic peptides containing individual hsp65 epitopes (100 µg peptide/DDA per rat). Ten days later PLNC were isolated and tested for responses to overlapping peptides (20 µg/ml). Peptide-specific T cell lines were generated by bulk in vitro stimulation of PLNC with immunising peptide. Lines were tested for responses to overlapping peptides (10 µg/ml). […] Results are expressed as mean cpm of triplicate cultures. All SEM were less than 20%.

adjuvant arthritis = test: Adjuvant arthritis (AA) induced with Mt in IFA, clinical arthritis score; format: in vivo, Lewis rats
Experimental: (§4) Induction and clinical assessment of experimental arthritis: Arthritis was induced by a single intradermal injection in the base of the tail. AA was induced with 0.5 mg Mt suspended in 100 µl IFA. CP20961 arthritis was induced with 2 mg CP20961 in 100 µl light mineral oil (Sigma). Rats were examined daily for clinical signs of arthritis. Severity of arthritis was assessed by scoring each paw from zero to four based on degree of swelling, erythema and deformity of the joints. Thus the maximum possible arthritis score was 16.
(§5) Modulation of arthritis with hsp65 peptides and epitope-specific T cell lines: Synthetic peptides corresponding to eight T cell epitopes present in mycobacterial hsp65 were tested for protective effects on arthritis development. Rats were immunised with 100 µg of individual peptide seven days prior to arthritis induction. Peptides were immunised in each hind footpad in 10 mg/ml DDA (50 µl/pad). Control rats received only PBS/DDA. Epitope-specific T cell lines were also tested for protective activity by intravenous administration of lines at the time of arthritis induction. T cell lines were restimulated in vitro with irradiated spleen APC and specific peptide. Four days later T cell blasts were harvested by ficoll gradient, washed and applied to a second ficoll gradient to remove any contaminating APC. T cells were washed twice in wash medium and twice in PBS and finally suspended at 2.5x10^7/ml in PBS. Immediately prior to injection of Mt, 200 µl (i.e. 5x10^6) T cells were injected i.v. in the tail vein.
The effects of preimmunisation with synthetic peptides containing individual epitopes on the development of AA were analysed (Fig. 7). The eight peptides which primed for epitope specific T cells were tested. Rats were immunised with 100 µg of peptide 7 days prior to AA-induction with Mt.

T cell = T cell proliferative responses in humans (initial testing); format: cell-based; conditions: some autoimmune disease patients
From the text: Thus, already the rat-defined T cell epitopes themselves could be used for therapeutical intervention in some individuals (certain HLA types).

hsp65-PLNC = test: T cell proliferation assay, hsp65-PLNC; format: cell-based, Lewis rats; conditions: PLNC from hsp65-immunised rats; peptides 5 and 20 µg/ml
Experimental: Immunisations and primed lymph node populations: Rats were immunised with either Mt or hsp65. Mt was suspended at 5 mg/ml in IFA or DDA and 100 µl injected in each hind footpad (i.e. 500 µg/footpad, 1 mg/rat). Hsp65 (1 mg/ml in PBS) was mixed 1:1 with DDA and 100 µl injected (i.e. 50 µg/footpad, 100 µg/rat). Ten to 21 days later, draining popliteal lymph nodes were removed, disaggregated, washed three times and used as a source of primed lymph node cells (PLNC). In control experiments splenocytes and lymph nodes from unimmunised rats and PLNC from rats immunised with IFA or DDA/PBS alone were used.
as §2
Hsp65-PLNC were analysed for responsiveness to a panel of peptides covering the entire sequence of hsp65 (Fig. 3a). […] In terms of magnitude of response, three regions of the molecule (residues 176-190, 211-230 and 221-240) appeared to contain the "dominant" T cell epitopes, while regions 86-100. 251-270, 396-410 and 506-525 contained "subdominant" or minor epitopes.

[2] = system: Peptide-specific T cell lines; test: T cell proliferation assay, peptide-specific T cell lines from peptide-immunised rats; format: cell-based, Lewis rats; conditions: for CPM T Cell Line: in vitro peptide 10 µg/ml
Experimental: as §2
T cell lines: T cell lines with specificity for mycobacterial hsp65 or peptides were generated by bulk stimulation of either hsp65-PLNC or Mt-PLNC. PLNC were cultured at 5 x 10^6/ml in culture medium supplemented with 2% normal rat serum (NRS) in the presence of 10 µg/ml Ag. After three days viable cells were harvested using a ficoll-isopaque gradient and cultured for a further four days in culture medium + 5% FCS and 5% TCGF (Con A-activated rat spleen supernatant). Seven days after initial stimulation lines were restimulated with irradiated spleen accessory cells and 10 µg/ml Ag in culture medium + NRS. Lines were maintained ir. this seven day restimulation cycle. Short term epitope-specific T cell lines were also generated from rats immunised with synthetic peptides. Peptide-PLNC were cultured as above in the presence of 10 µg/ml peptide.
Bulk stimulation generated T cell lines to eight of the nine peptides tested. These eight lines were tested for specificity after four in vitro restimulations (Table II). All responded to the immunising peptide and, to some extent, to hsp65.
as §3

[3] = system: PLNC from preimmunised rats; test: T cell proliferation assay, PLNC of peptide-preimmunised AA rats 42 days after Mt; format: cell-based, Lewis rats; conditions: rats preimmunised with the same peptide; peptide 20µg/ml
Experimental: as §1, §2
PLNC from preimmunised rats were tested for responsiveness to hsp65 epitopes 42 days after Mt administration (Fig. 8). […] Responses to peptide 176-190 containing the AA-associated epitope were found in all PLNC populations (and enhanced after 176-190 preimmunisation) with one exception.

[4] = system: CP20961-induced arthritis; test: CP20961-induced arthritis, clinical arthritis score; format: in vivo, Lewis rats; conditions: 100 µg peptide in DDA 7 days prior to 2 mg CP20961 in 100 µl mineral oil i.d.
Experimental: as §4
as §5, with “T cells were washed twice in wash medium and twice in PBS and finally suspended at 2.5x10^7/ml in PBS. Immediately prior to injection of Mt, 200 µl (i.e. 5x10^6) T cells were injected i.v. in the tail vein.” left out

[5] = system: T cell lines generated from hsp65-immunised rats; test: T cell proliferation assay, epitope-specific T cell lines generated from hsp65-immunised rats; format: cell-based, Lewis rats; conditions: Line H.52
Experimental: as §2, with “In experiments where responses to Ag were low, responses were considered significant if the stimulation index (S.I. = mean cpm with Ag - mean cpm without Ag) was greater than two and Student's t tests gave p < 0.01.” left out
T cell lines were generated by restimulation of hsp65-PLNC with individual synthetic peptides. For epitopes where responses had been detected to two overlapping peptides, the line was generated using the peptide that induced strongest proliferation of hsp65-PLNC (e.g. for epitope 216-225, peptide 211-225 was used). […]

[6] = 100 µg peptide in DDA, hind footpads, 7 days prior to AA induction with Mt

## peptide 86-100: synthetic 15mer, sequence 86-100 of SEQ ID No.1 (mycobacterial hsp65) (DGTTTATVLAQALVR; UniProt P9WPE7 86-100, looked up, fragment)
[1]; PLNC 10 days after immunisation with peptide 86-100 (100 µg/DDA), mean of triplicates
  CPM PLNC: 57925 cpm
Adjuvant arthritis; [6]
  protection against AA development after peptide preimmunisation: moderate protection; also recorded: moderate effect
T cell
  T cell proliferative responses in autoimmune disease patients: capable of inducing T cell proliferative responses
hsp65-PLNC
  hsp65-PLNC proliferative response to peptide: subdominant
[2]; T cell line from 86-100-immunised PLNC
  CPM T Cell Line: 49422 cpm

## peptide 211-225: synthetic 15mer, residues 211-225 of mycobacterial hsp65; control peptide in arthritis models
[1]; PLNC 10 days after immunisation with peptide 211-225 (100 µg/DDA)
  CPM PLNC: 39765 cpm
[3]
  PLNC response to the immunising peptide 42 days after Mt administration: strong responses
[4]
  protection against CP20961-induced arthritis after peptide preimmunisation: did not
Adjuvant arthritis; [6]
  protection against AA development after peptide preimmunisation: did not influence AA development
[2]; T cell line from 211-225-immunised PLNC
  CPM T Cell Line: 121978 cpm

## peptide 256-270: synthetic 15mer, sequence 256-270 of SEQ ID No.1 (mycobacterial hsp65)
[1]; PLNC 10 days after immunisation with peptide 256-270 (100 µg/DDA)
  CPM PLNC: 16423 cpm
[3]
  PLNC response to the immunising peptide 42 days after Mt administration: marginal PLNC responses
[5]
  level of proliferation relative to the rat peptide: five to ten fold higher
[4]
  protection against CP20961-induced arthritis after peptide preimmunisation: strongly protected
Adjuvant arthritis; [6]
  protection against AA development after peptide preimmunisation: striking protective effect; also recorded: strong protection; also recorded: clear protective effects
Adjuvant arthritis; 100 µg peptide in DDA, hind footpads, 7 days prior to AA induction with Mt, 24 rats in five experiments, maximum possible score 16
  mean maximum arthritis score: 1.7
Adjuvant arthritis; 100 µg peptide in DDA, hind footpads, 7 days prior to AA induction with Mt, listed as hsp65 256-270
  protection against AA development after peptide preimmunisation: Protection was observed
Adjuvant arthritis; of the 24 rats preimmunised with peptide, signs milder than in control rats
  rats that developed clinical signs of arthritis: twelve
Adjuvant arthritis; preimmunised rats that developed AA
  permanent joint deformities: remarkably free of permanent deformities
T cell
  T cell proliferative responses in autoimmune disease patients: capable of inducing T cell proliferative responses
[2]; T cell line from 256-270-immunised PLNC
  CPM T Cell Line: 69037 cpm
[2]; irradiated syngeneic spleen APC
  response of the line generated against M.256-270 (line P.m52): responded
